We go through 29 compounds from patent US10464926B2, “Heterobicyclic compounds and their use for the treatment of tuberculosis” (OTSUKA PHARMACEUTICAL CO., LTD., priority 2014, dated 2019).

Series [1] concerns Mycobacterium tuberculosis (M. tuberculosis Kurono). Kind of series: Antibacterial test (agar dilution method), M. tuberculosis Kurono. In kind it is cell-based. The settings on record: 7H11 agar medium, about 10^6 CFU/mL, 37° C. for 14 days; for MIC: Mycobacterium tuberculosis, 336 h, read-out: Minimum inhibitory concentration (MIC) kurono. A general note: Agar dilution tests growth on a series of plates holding different concentrations.

Consider `CCOc1ccc(N2CCC(O)(COc3ccc(F)c4c3CCC(=O)N4)CC2)c(F)c1` [Example 85, 5-{[1-(4-Ethoxy-2-fluorophenyl)-4-hydroxypiperidin-4-yl]methoxy}-8-fluoro-3,4-dihydroquinolin-2(1H)-one], for which the melting point (usually the temperature of the solid-liquid transition) lay in the range of 196 to 196.1 °C. The MIC in series [1] was under 0.39 µg/mL.

In turn, `O=C1CCc2c(OC[C@@]3(O)CCN(c4c(F)cc(Cl)cc4F)C[C@@H]3F)ccc(F)c2N1` [Example 449, 5-{[(3S,4S)-1-(4-Chloro-2,6-difluorophenyl)-3-fluoro-4-hydroxypiperidin-4-yl]methoxy}-8-fluoro-3,4-dihydroquinolin-2(1H)-one] had a melting point of 209 to 210 °C. Also, in series [1], the MIC is under 0.39 µg/mL.

For the compound `O=C1CCc2c(OC[C@@]3(O)CCN(c4ccc(Br)cc4F)C[C@H]3O)ccc(Cl)c2N1` [Example 364, 5-{[(3R,4S)-1-(4-Bromo-2-fluorophenyl)-3,4-dihydroxypiperidin-4-yl]methoxy}-8-chloro-3,4-dihydroquinolin-2(1H)-one], the melting point lay within 185.8 to 186 °C. Besides, in series [1], the MIC is under 0.39 µg/mL.

The compound `O=C1CCc2c(OCC3(O)CCN(c4ccc(Cl)cc4F)CC3)ccc(F)c2N1` [Example 52, 5-{[1-(4-Chloro-2-fluorophenyl)-4-hydroxypiperidin-4-yl]methoxy}-8-fluoro-3,4-dihydroquinolin-2(1H)-one] yielded a melting point of 190.6 to 190.7 °C. Moreover, the MIC in series [1] is under 0.39 µg/mL.

Compound `O=C1CCc2c(OCC3(O)CCN(c4ncc(Cl)cc4Cl)CC3)ccc(Cl)c2N1` [Example 139, 8-Chloro-5-{[1-(3,5-dichloropyridin-2-yl)-4-hydroxypiperidin-4-yl]methoxy}-3,4-dihydroquinolin-2(1H)-one] had a melting point of 218 °C. The MIC in series [1] was under 0.39 µg/mL.

In turn, `O=C1CCc2c(OC[C@@]3(O)CCN(c4c(F)cc(Cl)cc4F)C[C@H]3F)ccc(F)c2N1` [Example 446, 5-{[(3R,4S)-1-(4-Chloro-2,6-difluorophenyl)-3-fluoro-4-hydroxypiperidin-4-yl]methoxy}-8-fluoro-3,4-dihydroquinolin-2(1H)-one] yielded a melting point of 224 to 225 °C. In addition, the MIC in series [1] was under 0.39 µg/mL.

Turning to `O=C1CCc2c(SCC3(O)CCN(c4ccc(Cl)cc4F)CC3)ccc(F)c2N1` [Example 460, 5-({[1-(4-Chloro-2-fluorophenyl)-4-hydroxypiperidin-4-yl]methyl}sulfanyl)-8-fluoro-3,4-dihydroquinolin-2(1H)-one], the melting point fell in the range of 171 to 172 °C. Also, the MIC in series [1] is under 0.39 µg/mL.

Take `O=c1ccc2c(OCC3(O)CCN(c4ccc(Cl)cc4F)CC3)cccc2[nH]1` [Example 138, 5-{[1-(4-Chloro-2-fluorophenyl)-4-hydroxypiperidin-4-yl]methoxy}quinolin-2(1H)-one]: the melting point was in the range of 275.7 to 277 °C. In addition, the MIC in series [1] is under 0.39 µg/mL.

`O=C1CCc2c(OCC3(O)CCN(c4ccc(OCc5ccc(OC(F)(F)F)cc5)cc4F)CC3)ccc(F)c2N1` [Example 152, 8-Fluoro-5-{[1-(2-fluoro-4-{[4-(trifluoromethoxy)benzyl]oxy}phenyl)-4-hydroxypiperidin-4-yl]methoxy}-3,4-dihydroquinolin-2(1H)-one] returned a melting point of 199.9 to 200.5 °C. Besides, the MIC in series [1] is under 0.39 µg/mL.

`O=C1CCc2c(OC[C@]3(O)CCN(c4c(F)cc(Cl)cc4F)C[C@@H]3F)ccc(F)c2N1` [Example 447, 5-{[(3S,4R)-1-(4-Chloro-2,6-difluorophenyl)-3-fluoro-4-hydroxypiperidin-4-yl]methoxy}-8-fluoro-3,4-dihydroquinolin-2(1H)-one]: the melting point lay in the range of 224 to 225 °C. For the same compound, the MIC in series [1] is under 0.39 µg/mL.

Compound `O=C1CCc2c(cccc2OC[C@]2(O)CCN(c3ccc(Br)cc3F)C[C@H]2O)N1` [Example 347, 5-{[(3R,4R)-1-(4-Bromo-2-fluorophenyl)-3,4-dihydroxypiperidin-4-yl]methoxy}-3,4-dihydroquinolin-2(1H)-one] showed a melting point of 226 to 227 °C. For the same compound, the MIC in series [1] is under 0.39 µg/mL.

For the compound `O=c1ccc2c(OC[C@]3(O)CCN(c4ccc(Br)cc4F)C[C@H]3O)ccc(F)c2[nH]1` (relative stereo) [Example 369, 5-{[(3R*,4R*)-1-(4-Bromo-2-fluorophenyl)-3,4-dihydroxypiperidin-4-yl]methoxy}-8-fluoroquinolin-2(1H)-one], in series [1], the MIC is under 0.39 µg/mL.

With `O=C1CCc2c(CCC3(O)CCN(c4c(F)cc(Cl)cc4F)CC3)ccc(F)c2N1` [Example 463, 5-{2-[1-(4-Chloro-2,6-difluorophenyl)-4-hydroxypiperidin-4-yl]ethyl}-8-fluoro-3,4-dihydroquinolin-2(1H)-one], in series [1], the MIC is under 0.39 µg/mL.

For `O=C1CCc2c(OC[C@]3(O)CCN(c4c(F)cc(Cl)cc4F)C[C@@H]3O)ccc(F)c2N1` [Example 361, 5-{[(3S,4R)-1-(4-Chloro-2,6-difluorophenyl)-3,4-dihydroxypiperidin-4-yl]methoxy}-8-fluoro-3,4-dihydroquinolin-2(1H)-one], in series [1], the MIC was under 0.39 µg/mL.

For the compound `O=C1CCc2c(OCC3(O)CCN(c4c(F)cc(Cl)cc4F)CC3)ccc(Cl)c2N1` [Example 102, 8-Chloro-5-{[1-(4-chloro-2,6-difluorophenyl)-4-hydroxypiperidin-4-yl]methoxy}-3,4-dihydroquinolin-2(1H)-one], the melting point fell in the range of 181 to 181.2 °C. Moreover, the MIC in series [1] is under 0.39 µg/mL.

As for `O=C1CCc2c(OC[C@]3(O)CCN(c4c(F)cc(Cl)cc4F)C[C@H]3F)ccc(F)c2N1` [Example 448, 5-{[(3R,4R)-1-(4-Chloro-2,6-difluorophenyl)-3-fluoro-4-hydroxypiperidin-4-yl]methoxy}-8-fluoro-3,4-dihydroquinolin-2(1H)-one], the melting point was in the range of 207 to 209 °C. The MIC in series [1] is under 0.39 µg/mL.

Consider `CCOC(=O)O[C@@H]1CN(c2c(F)cc(Cl)cc2F)CC[C@@]1(O)COc1ccc(F)c2c1CCC(=O)N2` [Example 450, (3R,4R)-1-(4-chloro-2,6-difluorophenyl)-4-{[(8-fluoro-2-oxo-1,2,3,4-tetrahydroquinolin-5-yl)oxy]methyl}-4-hydroxypiperidin-3-yl ethyl carbonate], for which the MIC in series [1] is under 0.39 µg/mL.

Turning to `O=C1CCc2c(OC[C@@]3(O)CCN(c4ncc(Cl)cc4Cl)C[C@@H]3O)ccc(F)c2N1` [Example 252, 5-{[(3S,4S)-1-(3,5-Dichloropyridin-2-yl)-3,4-dihydroxypiperidin-4-yl]methoxy}-8-fluoro-3,4-dihydroquinolin-2(1H)-one], in series [1], the MIC was under 0.39 µg/mL.

Take `O=C1CCc2c(OC[C@]3(O)CCN(c4nc5ccc(Cl)cc5cc4Br)C[C@H]3O)ccc(F)c2N1` [Example 288, 5-{[(3R,4R)-1-(3-Bromo-6-chloroquinolin-2-yl)-3,4-dihydroxypiperidin-4-yl]methoxy}-8-fluoro-3,4-dihydroquinolin-2(1H)-one]: the MIC in series [1] is under 0.39 µg/mL.

As to `O=C1CCc2c(OCC3(O)CCC(O)(c4ccc(Cl)cc4F)CC3)ccc(F)c2N1` (stereo not drawn) [Example 465, 5-{[trans-4-(4-Chloro-2-fluorophenyl)-1,4-dihydroxycyclohexyl]methoxy}-8-fluoro-3,4-dihydroquinolin-2(1H)-one], the “Minimum inhibitory concentration (MIC) kurono” value in series [1] was under 0.39 µg/mL.

In turn, `COCCOc1cc(N2CCC(O)(COc3ccc(Cl)c4c3CCC(=O)N4)CC2)c(F)cc1Cl` [Example 175, 8-Chloro-5-({1-[4-chloro-2-fluoro-5-(2-methoxyethoxy)phenyl]-4-hydroxypiperidin-4-yl}methoxy)-3,4-dihydroquinolin-2(1H)-one] had a melting point of 143.5 to 145.1 °C. Also, the MIC in series [1] is under 0.39 µg/mL.

In the case of `O=C1CCc2c(OCC3(O)CCN(c4ccc(Cl)cc4)CC3)ccc(F)c2N1` [Example 49, 5-{[1-(4-Chlorophenyl)-4-hydroxypiperidin-4-yl]methoxy}-8-fluoro-3,4-dihydroquinolin-2(1H)-one], the MIC in series [1] is under 0.39 µg/mL.

On to `O=C1CCc2c(cc(F)cc2OCC2(O)CCN(c3ccc(Cl)cc3F)CC2)N1` [Example 194, 5-{[1-(4-Chloro-2-fluorophenyl)-4-hydroxypiperidin-4-yl]methoxy}-7-fluoro-3,4-dihydroquinolin-2(1H)-one], for which, in series [1], the MIC is under 0.39 µg/mL.

In the case of `O=C1CCc2c(OCC3(O)CCN(c4ccc(Br)cc4F)CC3)cc(F)c(F)c2N1` [Example 130, 5-{[1-(4-Bromo-2-fluorophenyl)-4-hydroxypiperidin-4-yl]methoxy}-7,8-difluoro-3,4-dihydroquinolin-2(1H)-one], the MIC in series [1] is under 0.39 µg/mL.

As for `CC(=O)O[C@@H]1CN(c2ccc(Cl)cc2F)CC[C@@]1(O)COc1ccc(F)c2c1CCC(=O)N2` [Example 454, (3R,4R)-1-(4-Chloro-2-fluorophenyl)-4-{[(8-fluoro-2-oxo-1,2,3,4-tetrahydroquinolin-5-yl)oxy]methyl}-4-hydroxypiperidin-3-yl acetate], the MIC in series [1] was under 0.39 µg/mL.

Turning to `COC1(c2ccc(Cl)cc2F)CCC(O)(COc2ccc(F)c3c2CCC(=O)N3)CC1` (stereo not drawn) [Example 477, 5-{[trans-4-(4-Chloro-2-fluorophenyl)-1-hydroxy-4-methoxycyclohexyl]methoxy}-8-fluoro-3,4-dihydroquinolin-2(1H)-one], in series [1], the “Minimum inhibitory concentration (MIC) kurono” value was under 0.39 µg/mL.

Take `O=C1CCc2c(OCC3(F)CCN(c4ncc(Cl)cc4Cl)CC3)ccc(F)c2N1` [Example 404, 5-{[1-(3,5-Dichloropyridin-2-yl)-4-fluoropiperidin-4-yl]methoxy}-8-fluoro-3,4-dihydroquinolin-2(1H)-one]: in series [1], the MIC is under 0.39 µg/mL.

On to `O=C1CCc2c(NCC3(O)CCN(c4ncc(Cl)cc4Cl)CC3)ccc(F)c2N1` [Example 372, 5-({[1-(3,5-Dichloropyridin-2-yl)-4-hydroxypiperidin-4-yl]methyl}amino)-8-fluoro-3,4-dihydroquinolin-2(1H)-one], for which the MIC in series [1] is under 0.39 µg/mL.

Turning to `O=C1CCc2c(OC[C@]3(O)CC[C@@H](c4ccc(Cl)cc4F)C[C@H]3O)ccc(F)c2N1` (relative stereo) [Example 471, 5-{[(1R*,2R*,4R*)-4-(4-Chloro-2-fluorophenyl)-1,2-dihydroxycyclohexyl]methoxy}-8-fluoro-3,4-dihydroquinolin-2(1H)-one], the MIC in series [1] was under 0.39 µg/mL.
